In PubChem BioAssay (NCI):
Values joined by “and” are separate entries in the source; they are usually repeats but may differ in a detail not shown here. Equal values may be shown once.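 Assay format: 96-well plates, 48-hour exposure. GI50 = concentration required for 50% inhibition of growth. TGI marks complete inhibition of growth.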

Experiments:
Assay in all cases: DTP human tumour cell line panel, 48 h
[1] = test system: ACHN renal
[2] = test system: CCRF-CEM leukemia
[3] = test system: EKVX NSCLC
[4] = test system: HCC-2998 colon
[5] = test system: HCT-15 colon
[6] = test system: K-562 leukemia
[7] = test system: MALME-3M melanoma
[8] = test system: OVCAR-4 ovarian
[9] = test system: SF-539 CNS
[10] = test system: SW-620 colon

Compound	GI50 [1]	GI50 [2]	TGI [2]	GI50 [3]	TGI [3]	GI50 [4]	TGI [4]	GI50 [5]	TGI [5]	GI50 [6]	TGI [6]	GI50 [7]	TGI [7]	GI50 [8]	TGI [8]	GI50 [9]	TGI [9]	GI50 [10]	TGI [10]	TGI [1]
C[C@@H]1C[C@@H](O)[C@]2(O)O[C@@H]3C[C@@]4(C=O)[C@@H](CC[C@@H]5[C@@H]4CC[C@]4(C)[C@@H](C6=CC(=O)OC6)CC[C@]54O)C[C@H]3O[C@@H]2O1	6.92 nM and 5 nM	5 nM	39.1 nM and 22.3 nM	10.4 nM	96.4 nM and 104 nM	27.3 nM	582 nM and 134 nM	60 nM	60.5 nM and 250 nM	55.3 nM and 12.4 nM	601 nM and 1590 nM and 523 nM	25.6 nM and 16.3 nM	32 nM and 80.2 nM and 99.4 nM	5.6 nM	53.1 nM and 12.8 nM	15 nM and 5 nM	14.6 nM and 37 nM and 14.4 nM	52.5 nM and 11.1 nM	59.1 nM and 221 nM and 164 nM	
CCOC(=O)C(=O)Nc1nc2c(s1)C(=O)c1ccccc1C2=O			69800 nM		29600 nM		31600 nM		29600 nM		33300 nM		25800 nM		31500 nM		31500 nM		27700 nM	28100 nM
N#CCC1COc2ccccc2O1 (stereo unspecified)			> 10000 nM				> 10000 nM		> 10000 nM		> 10000 nM		> 10000 nM		> 10000 nM		> 10000 nM		> 10000 nM	> 10000 nM
O=C(c1ccccc1)C(c1ccccc1)C1(O)C(=O)Nc2c(Cl)cc(Cl)cc21 (stereo unspecified)			49700 nM		27800 nM		33800 nM		> 100000 nM		50300 nM		32700 nM		28000 nM				34300 nM	33100 nM
CCC[CH2][Sn-]([CH2]CCC)([CH2]CCC)[O]c1cc(Cl)c(Cl)cc1Cl	190 nM			216 nM	900 nM	176 nM	334 nM	165 nM	330 nM	165 nM	411 nM	174 nM	379 nM	148 nM	398 nM	267 nM	437 nM	207 nM	440 nM	339 nM
CCOC(=O)[C@@]1(C)C=C2O[C@@H]3OC4(CCCCC4)O[C@@H]3C2=C2C(O)=CC=C(O)[C@]21C(=O)OC			> 68000 nM		> 68000 nM		> 68000 nM		> 68000 nM		> 68000 nM		> 68000 nM		> 68000 nM				> 68000 nM	> 68000 nM
O=C(NNc1nc(Cl)nc(N2CCN(C(c3ccccc3)c3ccccc3)CC2)n1)c1ccccc1	1750 nM	1280 nM	4530 nM	1990 nM	4290 nM	1630 nM	3160 nM	1620 nM	3420 nM	734 nM	> 100000 nM	1690 nM	3340 nM	1680 nM	3140 nM	1730 nM	3150 nM			3170 nM
O=C(CNc1nncs1)NO					> 100000 nM		> 100000 nM		> 100000 nM		> 100000 nM		> 100000 nM		> 100000 nM		> 100000 nM		> 100000 nM	> 100000 nM
